Patent US20240424148A1, “IN-VIVO PROXIMITY-BASED LABELING SYSTEMS AND APPLICATIONS THEREOF” (THE TRUSTEES OF PRINCETON UNIVERSITY, priority 2021, published 2024)

Assay: Redox potentials (electrochemistry)
Format: physicochemical
Source text: This reduced species is poised to undergo single electron transfer (SET) to the aryl azide, 1 (Ep/2=−0.61 V vs Ag/AgCl), thereby regenerating the catalyst (3) (FIG. 15).
Furthermore, electrochemical reduction of the Sn-chlorin e6 catalyst generated a species with significant spectral overlap with the transient-absorption signal of the photoexcited catalyst in the presence of NADH, supporting the generation of the reduced ground state catalyst.

Molecule `[N-]=[N+]=Nc1ccc(C(=O)O)cc1` [compound 1, 4-azidobenzoic acid] has an Ep/2 of −0.61 V vs Ag/AgCl.
